In one data set the test system is HMG-CoA reductase mRNA. The data set is described as follows: HMG-CoA reductase mRNA synthesis, real-time quantitative PCR. The class given is cell-based, rat.
The target of another data set is σ2-receptor (Homo sapiens, UniProt Q5BJF2). The data set can be described thus: σ2-receptor binding.
For data set [1] the following is noted: cited from earlier work.
Data set [2] deals with PC12 cells. The data set is described as follows: Glutamate-induced excitotoxicity, MTT assay. The class given is cell-based, rat. Conditions: compound 0.3-30 μM 24 h pre-incubation; glutamate 100 μM 24 h. (Formazan colour is commonly taken as a measure of viable cells.)
A further data set concerns the target T1, sigma-1 receptor (Homo sapiens, UniProt Q99720).
T1 construct: sigma-1 receptor expressed in Jurkat cells; endogenous in cells; host or cells: Jurkat cells
The data set is described as follows: Displacement of [3H](+)pentazocine from sigma-1 receptor expressed in Jurkat cells. The data set is classed as binding.

The subject of data set [3] is PC12 cells. The data set can be described thus: Neuroprotection against Aβ1-42 cytotoxicity, MTT assay (NADPH diaphorase activity). The data set is classed as cell-based, rat.
Data set [4] deals with PC12 cells. The data set can be described thus: Reversal of Aβ1-42-induced ATP depletion (ATPLite-M assay). Conditions: for ATP decrease induced by Aβ1-42, Aβ1-42 control = 100% reduction: 24 h pre-incubation, 24 h.
Data set [5] deals with PC12 cells. The data set is described as follows: Aβ1-42-induced free radical production (2,7-DCF fluorescent probe). Conditions: compound 1-100 μM 24 h pre-incubation; Aβ1-42 0.1-10 μM 24 h.
Where [6] appears, read: compound 1-100 μM, Aβ1-42 0.1-10 μM.

Bounds are passed on as bounds.

T1 sequence (Q99720 whole entry): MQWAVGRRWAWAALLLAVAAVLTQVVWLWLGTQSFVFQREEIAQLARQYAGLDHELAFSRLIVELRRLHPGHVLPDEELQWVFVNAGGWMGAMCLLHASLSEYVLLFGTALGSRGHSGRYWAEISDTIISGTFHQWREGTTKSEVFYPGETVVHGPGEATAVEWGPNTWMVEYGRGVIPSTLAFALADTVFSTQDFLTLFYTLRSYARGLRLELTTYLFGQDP
Chain of σ2-receptor (Q5BJF2 whole entry, species assumed): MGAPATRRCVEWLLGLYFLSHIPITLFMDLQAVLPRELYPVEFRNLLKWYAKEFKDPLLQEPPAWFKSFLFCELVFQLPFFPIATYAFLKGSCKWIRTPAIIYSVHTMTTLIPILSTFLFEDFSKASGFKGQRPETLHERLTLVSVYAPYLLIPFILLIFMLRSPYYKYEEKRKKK

“Aβ1-42: 42 amino acid β-amyloid peptide purchased from American Peptide Co., used as neurotoxic insult”: in the data set on HMG-CoA reductase mRNA (Aβ1-42 1 μM, 24 h, compared to control PC12 cells), the “HMG-CoA mRNA synthesis” value came to 1.48±0.17 times the control level.

The IC50 is the concentration that gives 50% inhibition. A low value points to greater potency in that assay. For orientation: pKa means the pH at which an ionisable group is half protonated. As to `CCN(CC)CCOC(=O)c1ccc(N)cc1` [Procaine, 4-aminobenzoic acid 2-(diethylamino)ethyl ester], the results for the IC50 at σ2-receptor and at sigma-1 receptor were above 10 µM and 4.3 µM, respectively. Further, in the data set on HMG-CoA reductase mRNA (control PC12 cells, no Aβ1-42), the “basal level of HMG-CoA reductase mRNA, in words” value was “did not affect”. Moreover, the “level of HMG-CoA reductase mRNA induced by Aβ1-42, in words” value in the data set on HMG-CoA reductase mRNA (procaine 1 or 10 μM 18 h pre-incubation, Aβ1-42 1 μM 24 h) is listed as “decreased in a dose-dependent manner”. The pKa in data set [1] is 8.9. The “neuroprotective effect against glutamate-induced cell death (MTT), in words” value in the data set on PC12 cells [2] is on record as “prevented the glutamate-induced neurotoxicity in a biphasic manner”. Moreover, the “Hill coefficient (nH)” value at sigma-1 receptor stood at 1.0. The “reduction of the NADPH diaphorase inhibition induced by Aβ1-42” value in the data set with PC12 cells [3] (1 and 10 μM procaine) is “at least 30%”. In the data set on PC12 cells [3] (setting [6]), the “protective effect against Aβ1-42 neurotoxicity (MTT), in words” value is “important protective effect against 0.1 and 1 μM Aβ1-42 induced toxicity”. Besides, the “ATP decrease induced by Aβ1-42, Aβ1-42 control = 100% reduction” value is 64.0 ± 24.4 % with PC12 cells [4] (compound 1 μM, Aβ1-42 0.1 μM); 67.8 ± 13.8 % with PC12 cells [4] (compound 1 μM, Aβ1-42 1 μM); 86.8 ± 5.5% in the data set on PC12 cells [4] (compound 1 μM, Aβ1-42 10 μM); 56.0 ± 16.4 % in the data set on PC12 cells [4] (compound 10 μM, Aβ1-42 0.1 μM); 97.0 ± 45.5% in the data set with PC12 cells [4] (compound 10 μM, Aβ1-42 1 μM); 89.8 ± 5.1% in the data set with PC12 cells [4] (compound 10 μM, Aβ1-42 10 μM). Besides, the “ATP decrease induced by Aβ1-42, Aβ1-42 control = 100% reduction” value in the data set with PC12 cells [4] (compound 100 μM, Aβ1-42 0.1 μM) came out at 42.8 ± 16.9 %; in the data set with PC12 cells [4] (compound 100 μM, Aβ1-42 1 μM) it was 69.6 ± 12.1 %; in the data set on PC12 cells [4] (compound 100 μM, Aβ1-42 10 μM), 83.6 ± 20.6%. Moreover, in the data set with PC12 cells [4] (setting [6]), the “effect on Aβ1-42-induced ATP decrease, in words” value was “protected against the 0.1 μM Aβ1-42-induced depletion of ATP concentrations in a dose-dependent manner”. The “effect on Aβ1-42-induced free radical production, in words” value with PC12 cells [5] is “exhibited a trend to reduce the Aβ1-42-induced free radical production”.
